This test addresses MetAP-2 (Homo sapiens, UniProt P50579). As to the kind of experiment: MetAP-2 activity measurement (coupled enzymatic reactions, Met-Arg-Ser substrate, dianisidine detection at 450 nm). It is filed as biochemical. The conditions noted are these: Inhibition of MetAP-2; read-out: IC50 enzyme. Put shortly:
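Coupled continuous assay with Met-Arg-Ser tripeptide substrate: released methionine oxidised by L-amino acid oxidase to give H2O2, which peroxidase uses to oxidise dianisidine, followed at 450 nm. Activity taken as slope of absorbance versus time over the visually linear region; dianisidine extinction coefficient converts to mol Met per time.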

pIC50: −log10 of the molar value.

What is called pIC50 is the IC50 on a negative log10 scale, so that one unit is a factor of ten.

Sequence of MetAP-2 (P50579 whole entry, species assumed): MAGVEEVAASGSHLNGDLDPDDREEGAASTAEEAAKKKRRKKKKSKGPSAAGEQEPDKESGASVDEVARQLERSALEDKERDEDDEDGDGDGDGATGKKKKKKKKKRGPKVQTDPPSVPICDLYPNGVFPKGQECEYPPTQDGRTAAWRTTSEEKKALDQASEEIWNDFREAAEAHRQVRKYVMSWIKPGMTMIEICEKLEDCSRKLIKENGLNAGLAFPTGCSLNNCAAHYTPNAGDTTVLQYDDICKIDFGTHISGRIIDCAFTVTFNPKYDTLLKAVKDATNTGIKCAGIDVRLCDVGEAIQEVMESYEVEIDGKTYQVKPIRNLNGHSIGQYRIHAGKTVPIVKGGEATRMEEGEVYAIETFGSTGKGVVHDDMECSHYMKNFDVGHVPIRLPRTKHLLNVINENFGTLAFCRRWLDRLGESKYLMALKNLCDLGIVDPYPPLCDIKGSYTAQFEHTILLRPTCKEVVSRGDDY

Regarding `O=C(NCc1cc(F)cc(Cl)c1)C1(O)CCN(Cc2nc3ccccc3[nH]2)C1=O` (stereo not shown) [A269, N-(3-chloro-5-fluorobenzyl)-1-(1H-benzimidazol-2-ylmethyl)-3-hydroxy-2-oxopyrrolidine-3-carboxamide], the negative logarithm of the IC50 (pIC50) is 5.00 to 6.00.
The result for `O=C1CCc2cc(N3CC[C@](O)(C(=O)NCc4cc(Cl)ccc4F)C3=O)ccc2N1` [B4, N-(5-Chloro-2-fluorobenzyl)-(S)-3-hydroxy-2-oxo-1-(2-oxo-1,2,3,4-tetrahydroquinolin-6-yl)-pyrrolidine-3-carboxamide] reads 6.00 to 8.00; that for `O=C(NCc1cc(F)cc(Cl)c1)C1(O)CCN(CC2CNC2)C1=O` (stereo not shown) [A218, N-(3-Chloro-5-fluorobenzyl)-1-azetidin-3-ylmethyl-3-hydroxy-2-oxopyrrolidine-3-carboxamide], under 5.00.
The figure for `CC(=O)Nc1ccc(N2CCC(O)(C(=O)NCCc3cc(F)cc(F)c3)C2=O)cn1` (stereo not shown) [A188, N-[2-(3,5-Difluorophenyl)ethyl]-1-(6-acetylaminopyridin-3-yl)-3-hydroxy-2-oxopyrrolidine-3-carboxamide] is 6.00 to 8.00; for `O=C(NCc1cc(F)cc(Cl)c1)[C@@]1(O)CCN(c2ccc3[nH]c(=O)[nH]c3c2)C1=O` [B71, N-(3-Chloro-5-fluorobenzyl)-(S)-3-hydroxy-2-oxo-1-(2-oxo-2,3-dihydro-1H-benzimidazol-5-yl)-pyrrolidine-3-carboxamide] it is 6.00 to 8.00.
The result for `COc1ccc(CN2CC[C@](O)(C(=O)NCc3cc(F)cc(Cl)c3)C2=O)cc1` [A181, N-(3-Chloro-5-fluorobenzyl)-(S)-3-hydroxy-1-(4-methoxybenzyl)-2-oxopyrrolidine-3-carboxamide] reads 6.00 to 8.00; that for `O=C(NCc1cc(F)cc(Cl)c1)C1(O)C(=O)N(c2ccccc2)CC12COC2` (stereo not shown) [A113, N-(3-Chloro-5-fluorobenzyl)-8-hydroxy-7-oxo-6-phenyl-2-oxa-6-azaspiro[3.4]octane-8-carboxamide], under 5.00.
For `COC(=O)c1cc(N2CCC(O)(C(=O)NCc3cc(F)cc(Cl)c3)C2=O)cnc1C` (stereo not shown) [A100, Methyl 5-[3-(3-chloro-5-fluorobenzylcarbamoyl)-3-hydroxy-2-oxopyrrolidin-1-yl]-2-methylnicotinate], the negative logarithm of the IC50 (pIC50) was 6.00 to 8.00.
The figure for `CCOC(=O)c1cc2cc(N3CC[C@](O)(C(=O)NCc4cc(F)cc(Cl)c4)C3=O)ccc2[nH]1` [B80, Ethyl 5-[(S)-3-(3-chloro-5-fluorobenzylcarbamoyl)-3-hydroxy-2-oxopyrrolidin-1-yl]-1H-indole-2-carboxylate] is 6.00 to 8.00; for `O=C(c1cccc(N2CC[C@@](O)(C(=O)NCc3cc(F)cc(Cl)c3)C2=O)c1)N1CCCCC1` [A104, N-(3-Chloro-5-fluorobenzyl)-(R)-3-hydroxy-2-oxo-1-[3-(piperidin-1-carbonyl)phenyl]pyrrolidine-3-carboxamide] it is under 5.00.
For `O=C1COc2cc(N3CCC(O)(C(=O)NCc4cc(F)cc(Cl)c4)C3=O)ccc2N1` (stereo not shown) [A151, N-(3-Chloro-5-fluorobenzyl)-3-hydroxy-2-oxo-1-(3-oxo-3,4-dihydro-2H-benzo-1,4-oxazin-7-yl)pyrrolidine-3-carboxamide], the pIC50 is 6.00 to 8.00.
The result for `O=C1CCc2cc(N3CC[C@](O)(C(=O)NCc4ccc(F)c(F)c4F)C3=O)ccc2N1` [A284, N-(2,3,4-Trifluorobenzyl)-(S)-3-hydroxy-2-oxo-1-(2-oxo-1,2,3,4-tetrahydroquinolin-6-yl)-pyrrolidine-3-carboxamide] reads 6.00 to 8.00; that for `O=C(NCCc1ccccc1F)C1(O)CCN(c2ccc3[nH]ccc3c2)C1=O` (stereo not shown) [A210, N-[2-(2-Fluorophenyl)ethyl]-3-hydroxy-1-(1H-indol-5-yl)-2-oxo-pyrrolidine-3-carboxamide], 6.00 to 8.00.
The result for `N#CCn1cc(N2CC[C@@](O)(C(=O)NCc3cc(F)cc(Cl)c3)C2=O)cn1` [B117, N-(3-Chloro-5-fluorobenzyl)-(R)-1-(1-cyanomethyl-1H-pyrazol-4-yl)-3-hydroxy-2-oxopyrrolidine-3-carboxamide] reads under 5.00.
In the case of `O=C1N(c2ccccc2)CC[C@]1(O)CNCc1cc(F)cc(Cl)c1` [B59, (S)-3-[(3-Chloro-5-fluorobenzylamino)methyl]-3-hydroxy-1-phenylpyrrolidin-2-one], the negative logarithm of the IC50 (pIC50) is 6.00 to 8.00.
The result for `O=C1COc2cc(N3CC[C@](O)(C(=O)NCc4cc(F)cc(Cl)c4)C3=O)ccc2N1` [A197, N-(3-Chloro-5-fluorobenzyl)-(S)-3-hydroxy-2-oxo-1-(3-oxo-3,4-dihydro-2H-benzo-1,4-oxazin-7-yl)pyrrolidine-3-carboxamide] reads 6.00 to 8.00; that for `O=C(NCc1cc(F)cc(Cl)c1)C1(O)CCN(CC2CCOCC2)C1=O` (stereo not shown) [A220, N-(3-Chloro-5-fluorobenzyl)-3-hydroxy-2-oxo-1-(tetrahydro-pyran-4-ylmethyl)pyrrolidine-3-carboxamide], 5.00 to 6.00.
`N#Cc1cncc(N2CC[C@@](O)(C(=O)NCc3cc(F)cc(Cl)c3)C2=O)c1` [A98, N-(3-Chloro-5-fluorobenzyl)-(R)-1-(5-cyanopyridin-3-yl)-3-hydroxy-2-oxopyrrolidine-3-carboxamide]: the pIC50 was under 5.00.
The result for `N#Cc1cncc(N2CC[C@](O)(C(=O)NCc3cc(F)cc(Cl)c3)C2=O)c1` [A107, N-(3-Chloro-5-fluorobenzyl)-(S)-1-(5-cyanopyridin-3-yl)-3-hydroxy-2-oxopyrrolidine-3-carboxamide] reads 5.00 to 6.00.
As to `O=C1CCc2cc(N3CCC(O)(C(=O)NCc4cc(F)cc(Cl)c4)C3=O)c(F)cc2N1` (stereo not shown) [B109, N-(3-Chloro-5-fluorobenzyl)-1-(7-fluoro-2-oxo-1,2,3,4-tetrahydroquinolin-6-yl)-3-hydroxy-2-oxopyrrolidine-3-carboxamide], the negative-log IC50 (pIC50) is 6.00 to 8.00.
The result for `NC(=O)c1cccc(N2CCC(O)(C(=O)NCc3cccc(F)c3Cl)C2=O)c1` (stereo not shown) [A193, N-(2-Chloro-3-fluorobenzyl)-1-(3-carbamoylphenyl)-3-hydroxy-2-oxopyrrolidine-3-carboxamide] reads 6.00 to 8.00.
The result for `O=C(NCc1cc(F)cc(Cl)c1)[C@]1(O)CCN(CCc2c[nH]c3ccccc23)C1=O` [B38, N-(3-Chloro-5-fluorobenzyl)-(R)-3-hydroxy-1-[2-(1H-indol-3-yl)-ethyl]-2-oxopyrrolidine-3-carboxamide] reads 5.00 to 6.00; that for `COC(=O)CCc1cc(N2CCC(O)(C(=O)NCc3cc(F)cc(Cl)c3)C2=O)ccc1NC(=O)OC(C)(C)C` (stereo not shown) [B105, Methyl 3-{2-tert-butoxy-carbonylamino-5-[3-(3-chloro-5-fluorobenzylcarbamoyl)-3-hydroxy-2-oxopyrrolidin-1-yl]-phenyl}propionate], 6.00 to 8.00.
The figure for `CC(C)(C)OC(=O)N1CCC(n2cc(N3CCC(O)(C(=O)NCc4cc(F)cc(Cl)c4)C3=O)cn2)CC1` (stereo not shown) [A170, tert-Butyl 4-{4-[3-(3-chloro-5-fluorobenzylcarbamoyl)-3-hydroxy-2-oxopyrrolidin-1-yl]-pyrazol-1-yl}-piperidine-1-carboxylate] is 6.00 to 8.00; for `CCS(=O)(=O)Nc1cccc(N2CC[C@@](O)(C(=O)NCc3cc(F)cc(Cl)c3)C2=O)c1` [A84, N-(3-Chloro-5-fluorobenzyl)-(R)-1-(3-ethanesulfonylaminophenyl)-3-hydroxy-2-oxopyrrolidine-3-carboxamide] it is 5.00 to 6.00.
Take `O=C(NCc1cc(F)cc(Cl)c1)C1(O)CCN(c2cnc3c(c2)OCCN3)C1=O` (stereo not shown) [A118, N-(3-Chloro-5-fluorobenzyl)-1-(3,4-Dihydro-2H-pyrido[3,2-b]-1,4-oxazin-7-yl)-3-hydroxy-2-oxopyrrolidine-3-carboxamide]: the pIC50 is 6.00 to 8.00.
The figure for `NCCNC(=O)c1cc2cc(N3CC[C@](O)(C(=O)NCc4cc(F)cc(Cl)c4)C3=O)ccc2[nH]1` [B132, N-(2-Aminoethyl)-5-[(S)-3-(3-chloro-5-fluorobenzyl-carbamoyl)-3-hydroxy-2-oxo-pyrrolidin-1-yl]-1H-indole-2-carboxamide] is 6.00 to 8.00; for `O=C(NCc1cc(F)cc(Cl)c1)[C@@]1(O)CCN(c2cnc3[nH]cc(C(F)(F)F)c3c2)C1=O` [B139, N-(3-Chloro-5-fluorobenzyl)-(S)-3-hydroxy-2-oxo-1-(3-trifluoro-methyl-1H-pyrrolo[2,3-b]pyridin-5-yl)pyrrolidine-3-carboxamide] it is 6.00 to 8.00; for `O=C(NCc1cc(F)cc(Cl)c1)[C@@]1(O)CCN(c2ccc3[nH]c(=O)sc3c2)C1=O` [B77, N-(3-Chloro-5-fluorobenzyl)-(S)-3-hydroxy-2-oxo-1-(2-oxo-2,3-dihydrobenzothiazol-6-yl)-pyrrolidine-3-carboxamide] it is 6.00 to 8.00.
The figure for `CS(=O)(=O)N[C@H]1CC[C@H](N2CCC(O)(C(=O)NCc3cc(F)cc(Cl)c3)C2=O)CC1` (stereo partly shown) [A123, N-(3-Chloro-5-fluorobenzyl)-3-hydroxy-1-(4-methane-sulfonylaminocyclohexyl)-2-oxo-pyrrolidine-3-carboxamide] is 5.00 to 6.00; for `O=C1CCc2cc(N3CC[C@](O)(C(=O)NCc4c(F)ccc(F)c4Cl)C3=O)ccc2N1` [A244, N-(2-Chloro-3,6-difluorobenzyl)-(S)-3-hydroxy-2-oxo-1-(2-oxo-1,2,3,4-tetrahydroquinolin-6-yl)-pyrrolidine-3-carboxamide] it is 6.00 to 8.00.
The result for `O=C(NCc1cc(F)cc(Cl)c1)[C@]1(O)CCN(c2cnc3[nH]cnc3c2)C1=O` [B93, N-(3-Chloro-5-fluorobenzyl)-(R)-3-hydroxy-1-(3H-imidazo-[4,5-b]pyridin-6-yl)-2-oxo-pyrrolidine-3-carboxamide] reads 5.00 to 6.00; that for `O=C(NCc1cccc(F)c1)C1(O)CCCN(Cc2ccc(F)c(F)c2)C1=O` (stereo not shown) [A253, N-(3-Fluorobenzyl)-1-(3,4-difluorobenzyl)-3-hydroxy-2-oxo-piperidine-3-carboxamide], 5.00 to 6.00; that for `N#Cc1cc2cc(N3CCC(O)(C(=O)NCc4cc(F)cc(Cl)c4)C3=O)ccc2[nH]1` (stereo not shown) [A217, N-(3-Chloro-5-fluorobenzyl)-1-(2-cyano-1H-indol-5-yl)-3-hydroxy-2-oxopyrrolidine-3-carboxamide], 6.00 to 8.00.
